According to patent US20260250641A1, “COMPOSITIONS AND USES THEREOF FOR STABILIZATION OF BLOOD SAMPLE COMPONENTS” (STRECK LLC, priority 2023, published 2026):
“Also recorded” adds a separate entry of the source.

Columns and labels:
platelets [1] = test: First round screening of platelet activation inhibitors: plasma TGF-β1 by Ella immunoassay; assay type: cell-based; conditions: inhibitor added to Streck B formulation; venous blood at room temperature; data not shown
Method: Blood specimens drawn from 3 donors were stored at room temperature for […]. Activated platelet secret granule contents, such as growth factors, chemokines, and cytokines, into plasma. Elevated plasma concentration of TGF-β1 indicates platelet activation and granule release. Plasma TGF-β1 level was measured with immunoassay using Ella Automated Immunoassay System. Freshly drawn blood (day 0), blood stored for 1 day (Day 1), 3 days (Day 3), and 7 days (Day 7) were tested.
The tested formulations are compared with EDTA and ACD-A for their ability to prevent granule release from platelets. Streck B formulation spiked with 2 mM tetracaine was also used as a reference.

platelets [2] = test: Second round screening: % activated platelets (CD62P/CD61 flow cytometry) and plasma TGF-β1; assay type: cell-based; conditions: inhibitor in Streck B formulation at 3 to 5 dosages; room temperature up to 7 days; data not shown
Method: Preservative formulations were made by adding platelet activation inhibitors to the Streck B formulation at the desired concentrations. Venous blood specimens from 2 donors were then drawn into blood collection tubes (BCTs) prefilled with these formulations. As references, blood specimens were also drawn into EDTA tubes, ACD-A tubes, tubes filed with Streck B formulation, and tubes containing Streck B formulation spiked with and 2 mM tetracaine. Blood specimens were stored at room temperature for up to 7 days.
The percentages of activated platelets (CD62P positive) among total platelets (CD61 positive) in drawn whole blood were measured by flow cytometry. The percentage of activated platelets was tested with Day 0 and Day 3 blood specimens. The plasma levels of TGF-β1 in Day 0, Day 1, Day 3, and Day 7 old blood specimens were measured with immunoassay.

[3] = test system: white blood cells, red blood cells, and platelets; test: Third round screening: plasma MPO, ferritin and RANTES as blood cell damage indicators; assay type: cell-based; conditions: inhibitor in Streck B formulation; 7-day room temperature storage; data not shown
Method: The effects of these seven inhibitors on white blood cells, red blood cells, and platelets were evaluated during the third round of screening. […] Therefore, plasma levels of myeloperoxidase (MPO), ferritin, and RANTES were measured with immunoassay as damage indicators of white blood cells, red blood cells, and platelets, respectively. Preservative formulations were made by adding platelet activation inhibitors to Streck B formulation at concentrations determined through the second round of screening. Venous blood was collected from 2 donors for all preservative formulations. EDTA, ACD-A, Streck B formulation and Streck B formulation spiked with 2 mM Tetracaine were used as references. Draw whole blood samples were stored at room temperature for up to 7 days.

plasma proteins = test: Venous blood, Luminex xMAP Multiplex Immunoassay Panel; assay type: cell-based; conditions: room temperature storage, 3 to 5 days
Method: After double-spin process, isolated plasma fractions were tested with Luminex xMAP Multiplex Immunoassay Panel.

RBC = test: In vitro hemolysis, absorbance at 414 nm (Nanodrop); assay type: cell-based; conditions: venous blood, room temperature up to 5 days, N=15
From the text: Hemolysis was quantitatively measured by following the absorbance at 414 nm with Nanodrop. An increased A414 indicates releasing of hemoglobin from broken RBC, which is a key event of hemolysis.

cfDNA [4] = test: cfDNA stability: Qubit HS DNA Assay, total plasma cfDNA
From the text: (§1) The drawn blood samples were stored at room temperature for up to 7 days. Total cell-free nucleic acids were isolated from day 0 or day 7 blood samples using Qiagen's QIAamp Circulating Nucleic Acid Kit.
(§2) The resultant plasma cfDNA was first studied with Qubit HS DNA Assay (FIG. 5A), which quantifies the concentration of total plasma cfDNA. Without proper stabilization, white blood cells in drawn blood will lyse during storage and release large amounts of genomic DNA fragments into the plasma, leading to elevated total plasma cfDNA. Compared to cfDNA originating from white blood cells, tumor-derived cfDNA is preset at a very low concentration. Tumor-derived cfDNA should not be detectable in healthy donors.

β-actin (ACTB) = test: cfDNA stability: plasma β-actin (ACTB) by digital droplet PCR; conditions: day 7 blood, ambient storage
From the text: as §1, §2

cfDNA [5] = test: cfDNA stability: Agilent cfDNA ScreenTape Assay
From the text: as §1
Plasma cfDNA was further analyzed with Agilent cfDNA ScreenTape Assay on Agilent TapeStation (FIGS. 5C & 5D). […] Thus, the percentage of cfDNA between 150-300 bp among total cfDNA (% cfDNA) was used to indicate genomic DNA contamination (FIG. 5D).

cfRNA [6] = test: cfRNA stability: Agilent RNA Pico Kit, Bioanalyzer; conditions: day 7 versus freshly collected blood
From the text: (§3) Total cell-free nucleic acids were isolated from day 0 or day 7 blood samples using Qiagen's QIAamp Circulating Nucleic Acid Kit.
The plasma cfRNA was first analyzed with Agilent's RNA Pico Kit on the Agilent Bioanalyzer system (FIG. 6A).

cfRNA [7] = test: cfRNA stability: Qubit miRNA Assay, total plasma cfRNA; conditions: 7 days ambient storage
From the text: as §3
Qubit miRNA Assay was used to quantify the concentration of total plasma cfRNA. If RNA-containing cells, such as reticulocytes and white blood cells, were lysed during storage, then large amounts of RNA fragments would be released into plasma, masking the very low abundant circulating cfRNA while resulting in elevated cfRNA.

red blood cells = test: TAP II capillary blood study: hemolysis (A414); assay type: cell-based; conditions: venous blood and TAP II capillary blood, up to 3 days room temperature
From the text: Blood samples were stored at room temperature for up to 3 days.

platelets [8] = test: Tasso+ capillary blood study: plasma MPO and RANTES; assay type: cell-based; conditions: venous and Tasso+ capillary blood, up to 3 days room temperature
Method: Tasso+ is a single-use device that collects up to 0.5 mL of capillary blood from a donor's upper arm. Tasso+ is compatible with BD Microtainer® Blood Collection Tubes.
Capillary blood samples were collected from 3 donors. […] Blood samples were stored at room temperature for up to 3 days. Three functionality assays were conducted, including measuring hemolysis (FIG. 8A) and testing the plasma level of MPO (FIG. 8B) and RANTES (FIG. 8C).

TGF-β1 = test: Spray-coated microcollection tubes: plasma TGF-β1 (Ella); assay type: cell-based; conditions: 3-day room temperature storage, spray-coated microcollection tubes (FIG. 10)
Method: (§4) Blood was collected from healthy donors, each collected into 1×5 mL EDTA vacutainer tubes and virgin (no anticoagulant). Next, venous blood was aliquoted as quickly as possible into the spray-coated microtainers. The EDTA blood was aliquoted into virgin Greiner microtainers as negative controls. The blood with no anticoagulant was aliquoted into microcollection tubes spray coated with one of three formulations noted in Table 2 below, with two tubes per formulation. The sprayed microtainers were then mixed 15-20 times with the blood sample.
(§5) Half of the samples were analyzed at draw time and the remaining half were stored at room temperature for 3 days before analysis. Plasma protein concentration of TGF-β1 was analyzed with Ella (FIG. 10). Plasma β-Actin level was determined by ddPCR (FIG. 11).

β-Actin DNA (ACTB) = test: Spray-coated microcollection tubes: plasma β-Actin by ddPCR
Method: as §4, §5

platelets [9] = conditions: 2 mM mexiletine or 1 mM verapamil in Streck B formulation; tubes stored 2-50° C. up to 8 weeks; data not shown
From the text: Freshly made tubes, 2 weeks old tubes, 4 weeks old tubes, and 8 weeks old tubes were then used to collect venous blood from 2 self-proclaimed healthy donors. Blood specimens were stored at room temperature for up to 3 days. The percentage of platelet activation and plasma level of TGF-31 to test the ability of the aged formulation to prevent platelets activation at collection time and during room temperature storage.

| Compound | outcome of first round screening (maintaining plasma TGF-β1 comparable to Streck B formulation with tetracaine) (platelets [1]) | ability to reduce platelet activation in second round screening (platelets [2]) | adverse effects on white blood cells, red blood cells and platelet [3] | further results |
| --- | --- | --- | --- | --- |
| COc1ccc(CCN(C)CCCC(C#N)(c2ccc(OC)c(OC)c2)C(C)C)cc1OC (stereo not drawn) [verapamil] | graduated from the first round of the screening | behaved at least comparable to each other | little adverse effects |  |
| O=C(O)CN(CCN(CC(=O)O)CC(=O)O)CC(=O)O [EDTA, ethylene diamine tetra acetic acid] |  |  |  | plasma concentrations of representative proteins and cytokines (FIG. 2: MPO, TGF-β1, CCL5/RANTES, MMP-9, VEGF, Granzyme B, TNFα, IL-8) (plasma proteins): elevated levels; also recorded: marked increase; in vitro hemolysis (A414) (RBC): in vitro hemolysis since day 3; also recorded: significant hemolysis; total plasma cfDNA concentration (cfDNA [4]; day 0 blood): low concentrations of cfDNA; total plasma cfDNA concentration (cfDNA [4]; day 7 blood, room temperature): elevated total cfDNA; plasma level of β-actin (ACTB) DNA (β-actin (ACTB)): high amount of ACTB; % cfDNA (cfDNA between 150-300 bp among total cfDNA) (cfDNA [5]; Day 0 blood): 75%; plasma cfDNA electropherogram plots (cfDNA [5]; Day 7 blood): prominent peak of apoptotic-ladder DNA; % cfDNA (cfDNA between 150-300 bp among total cfDNA) (cfDNA [5]; Day 7 blood, room temperature): 30%; plasma cfRNA electropherogram (concentration and population) (cfRNA [6]): greatly changed; increase of total cfRNA after storage (cfRNA [7]): ~5 fold; hemolysis (red blood cells): induces hemolysis; granule release from activated platelets (plasma MPO and RANTES) (platelets [8]): increased; change of plasma TGF-β1 level after storage (TGF-β1): drastically increased; level of β-Actin in 3-day old plasma versus draw time plasma (β-Actin DNA (ACTB); 3 days room temperature (FIG. 11)): more than 20 fold; plasma β-Actin DNA level after storage (genomic DNA contamination) (β-Actin DNA (ACTB); 3 days room temperature, spray-coated tubes (FIG. 11)): led to genomic DNA (β-Actin) contamination |
| COc1ccc([C@@H]2Sc3ccccc3N(CCN(C)C)C(=O)[C@@H]2OC(C)=O)cc1 [diltiazem] | graduated from the first round of the screening | behaved at least comparable to each other | little adverse effects |  |
| CCCCN1CCCCC1C(=O)Nc1c(C)cccc1C (stereo not drawn) [bupivacaine] | graduated from the first round of the screening | behaved at least comparable to each other | little adverse effects |  |
| Cc1cccc(C)c1OCC(C)N (stereo not drawn) [mexiletine] | graduated from the first round of the screening | behaved at least comparable to each other | little adverse effects | functional stability of aged formulations compared to other tested ion inhibitors (platelets [9]): better functional stability |
| CCN(CC)CC(=O)Nc1c(C)cccc1C [lidocaine] |  | behaved at least comparable to each other | little adverse effects |  |
| Cc1cccc(C)c1NC(=O)C1CCCCN1C (stereo not drawn) [mepivacaine] | graduated from the first round of the screening | behaved at least comparable to each other | little adverse effects |  |
| C=C[C@H]1C[N@@]2CC[C@H]1C[C@@H]2[C@@H](O)c1ccnc2ccc(OC)cc12 [quinidine] | graduated from the first round of the screening | behaved at least comparable to each other | little adverse effects |  |
